# According to PubChem BioAssay AID624026 (Broad Institute, 2012):
# “And” between values parts separate entries of the source, which are not always exact repeats. Equal entries are not always repeated. The source made the active and inactive calls.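 How the source made its calls: active means compounds reducing cell viability with a fitted AC50 at or below twice their top valid dose; inconclusive means flat curve between -70% and -30%, or an unreliable fit; inactive means the rest.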
# Experiments:
# [1] = cytotoxicity in ldlA[mSR-BI] CHO cells, dose response, cytotoxicity control for SR-BI HDL uptake inhibitor project, cell-based, CellTiter-Glo, 24 h, powder samples, set 7 (AID 624026); conditions: ldlA[mSR-BI] CHO cells viability, CellTiter-Glo ATP, 24 h; at 35 µM (top of the series)
# [2] = tested on: ldlA[mSR-BI] CHO cells viability, CellTiter-Glo ATP, 24 h; experiment: as above
SMILES,"activity change, negative = cytotoxicity [1]",AC50 [2]
COc1c(NC(=O)C(=O)c2ccc(OCCN3CCOCC3)c3ccccc23)cc(C(C)(C)C)cc1NS(C)(=O)=O,-29.9% (inactive),–
C[C@@H]1CN([C@H](C)CO)C(=O)c2cc(NC(=O)Cc3cn(C)c4ccccc34)ccc2O[C@H]1CN(C)S(=O)(=O)c1ccc(Cl)cc1,-1.59% (inactive),–
CC(C)NC(=O)Nc1cccc2c1O[C@@H](CN(C)S(=O)(=O)c1ccc(Cl)cc1)[C@H](C)CN([C@H](C)CO)C2=O,3.81% (inactive),–
CC(C)NC(=O)Nc1ccc2c(c1)C(=O)N([C@@H](C)CO)C[C@@H](C)[C@H](CN(C)S(=O)(=O)c1ccc(Cl)cc1)O2,0.1% (inactive),–
C[C@@H]1CN([C@H](C)CO[Si](C)(C)C(C)(C)C)C(=O)c2cc(NC(=O)C3CCCCC3)ccc2O[C@H]1CN(C)C(=O)c1ccc(Cl)cc1,1.39% (inactive),–
O=C1C2C3C=CC(C3)C2C(=O)N1c1cccc(N2C(=O)C3C4C=CC(C4)C3C2=O)n1 (configuration not stated),-1.42% (inactive),–
C=CCOC(=O)N(C)C[C@@H]1Oc2ccc(NC(=O)OCC3c4ccccc4-c4ccccc43)cc2C(=O)N([C@H](C)CO)C[C@H]1C,–,> 70 µM (inactive)
CCOc1cc2c3c(c1)C1(C(=O)N3C(C)(C)CC2C)C(C#N)=C(N)N2C(=C1C#N)Nc1ccccc12 (configuration not stated),-18.2% (inactive),–
C=CCOC(=O)N(C)C[C@@H]1Oc2ccc(N)cc2C(=O)N([C@H](C)CO[Si](C)(C)C(C)(C)C)C[C@H]1C,–,> 70 µM (inactive)
CC(C)NC(=O)Nc1ccc2c(c1)C(=O)N([C@H](C)CO)C[C@@H](C)[C@@H](CN(C)S(=O)(=O)c1ccc(Cl)cc1)O2,4.21% (inactive),–
CC(C)NC(=O)Nc1ccc2c(c1)C(=O)N([C@H](C)CO[Si](C)(C)C(C)(C)C)C[C@@H](C)[C@H](CN(C)S(=O)(=O)c1ccc(Cl)cc1)O2,2% (inactive),–
CC(C)NC(=O)Nc1ccc2c(c1)C(=O)N([C@@H](C)CO)C[C@@H](C)[C@@H](CN(C)S(=O)(=O)c1ccc(Cl)cc1)O2,12.2% (inactive),–
CC(C)NC(=O)Nc1ccc2c(c1)C(=O)N([C@@H](C)CO)C[C@H](C)[C@H](CN(C)S(=O)(=O)c1ccc(Cl)cc1)O2,6.98% (inactive),–
Cc1noc(C)c1S(=O)(=O)Nc1ccc2c(c1)C(=O)N([C@H](C)CO)C[C@@H](C)[C@H](CN(C)S(=O)(=O)c1ccc(Cl)cc1)O2,2.07% (inactive),–
CC(C)NC(=O)Nc1ccc2c(c1)CC(=O)N([C@H](C)CO)C[C@@H](C)[C@H](CN(C)S(=O)(=O)c1ccc(Cl)cc1)O2,8.33% (inactive),–
C[C@@H]1CN([C@H](C)CO)C(=O)c2cc(NC(=O)C3CCCCC3)ccc2O[C@H]1CN(C)S(=O)(=O)c1ccc(Cl)cc1,0.365% (inactive),–

SMILES,"activity change, negative = cytotoxicity [1]",AC50 [2]
Cc1ccc(OCc2cc(C(=O)N3CCCC(O)C3)no2)cn1 (configuration not stated),-3.58% (inactive),–
C[C@@H]1CN([C@H](C)CO)C(=O)c2cc(NC(=O)Cc3cn(C)c4ccccc34)ccc2O[C@H]1CN(C)S(=O)(=O)c1ccc(F)cc1,12.8% (inactive),–
C[C@@H]1CN([C@H](C)CO)C(=O)c2cc(NC(=O)C3CCCCC3)ccc2O[C@H]1CN(C)C(=O)c1ccc(Cl)cc1,-8.49% (inactive),–
C[C@@H]1CN([C@H](C)CO)C(=O)c2cc(NC(=O)C3CCCCC3)ccc2O[C@H]1CN(C)S(=O)(=O)c1cccc(Cl)c1,-12.5% (inactive),–
CC(C)NC(=O)Nc1ccc2c(c1)C(=O)N([C@H](C)CO)C[C@H](C)[C@H](CN(C)S(=O)(=O)c1ccc(Cl)cc1)O2,1.21% (inactive),–
C[C@@H]1CN([C@H](C)CO)C(=O)c2cc(NC(=O)C3CCOCC3)ccc2O[C@H]1CN(C)S(=O)(=O)c1ccc(Cl)cc1,-3.51% (inactive),–
C[C@H](C(=O)NC1CCCC1)N(C(=O)Cn1nnc(-c2ccc3c(c2)OCO3)n1)C1CCCCC1,-3.33% (inactive),–
C=CCOC(=O)N(C)C[C@@H]1Oc2ccc(NC(=O)NC(C)C)cc2C(=O)N([C@H](C)CO[Si](C)(C)C(C)(C)C)C[C@H]1C,–,21.6 µM
CC(C)CN(C(=O)COC(=O)C12CC3CC(CC(O)(C3)C1)C2)C1CCS(=O)(=O)C1 (configuration not stated),-5.18% (inactive),–
COc1ccc2c(c1)CC(C1(O)C(=O)N(C)c3ccccc31)C2=O (configuration not stated),-4.38% (inactive),–
COCC(=O)N1CCc2cc(-c3csc(NC(=O)c4cc(OC)cc(OC)c4)n3)ccc21,3.29% (inactive),–
C[C@@H]1CN([C@H](C)CO)C(=O)c2cc(NC(=O)C3CCCCC3)ccc2O[C@H]1CN(C)S(=O)(=O)c1ccccc1Cl,2.46% (inactive),–
O=C(O)CC(C(=O)Nc1cccc(C(F)(F)F)c1)C1CCCO1 (configuration not stated),1.15% (inactive),–
CNC[C@@H]1Oc2ccc(NC(=O)NC(C)C)cc2C(=O)N([C@H](C)CO[Si](C)(C)C(C)(C)C)C[C@H]1C,0.137% (inactive),–
CC(C)NC(=O)Nc1ccc2c(c1)C(=O)N([C@H](C)CO)C[C@@H](C)[C@H](CN(C)S(=O)(=O)c1ccc(Cl)cc1)O2,10.4% (inactive) and 2.32% (inactive),> 70 µM (inactive)
